How the values were obtained:
TAAR1 = experiment: Calculated Kd of the radioligand used in the TAAR1 binding assay; settings: species not stated
Protocol: Each experiment was performed in duplicate.

rat TAAR1 = rat TAAR1 (Rattus norvegicus, UniProt Q923Y9); experiment: Radioligand binding on membranes of HEK293 cells stably expressing rat TAAR1
mouse TAAR1 = mouse TAAR1 (Mus musculus, UniProt Q923Y8); experiment: Radioligand binding on membranes of HEK293 cells stably expressing mouse TAAR1
Sequence of mouse TAAR1 (Q923Y8 whole entry): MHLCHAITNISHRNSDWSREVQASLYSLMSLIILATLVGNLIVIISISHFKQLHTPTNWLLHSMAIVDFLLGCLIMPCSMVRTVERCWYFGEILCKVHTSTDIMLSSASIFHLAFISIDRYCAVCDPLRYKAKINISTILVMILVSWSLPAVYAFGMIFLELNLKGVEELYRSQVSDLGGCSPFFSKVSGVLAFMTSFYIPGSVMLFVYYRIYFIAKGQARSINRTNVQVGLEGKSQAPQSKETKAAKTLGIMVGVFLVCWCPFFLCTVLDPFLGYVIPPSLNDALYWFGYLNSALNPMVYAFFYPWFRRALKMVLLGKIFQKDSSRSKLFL

Sequence of rat TAAR1 (Q923Y9 whole entry): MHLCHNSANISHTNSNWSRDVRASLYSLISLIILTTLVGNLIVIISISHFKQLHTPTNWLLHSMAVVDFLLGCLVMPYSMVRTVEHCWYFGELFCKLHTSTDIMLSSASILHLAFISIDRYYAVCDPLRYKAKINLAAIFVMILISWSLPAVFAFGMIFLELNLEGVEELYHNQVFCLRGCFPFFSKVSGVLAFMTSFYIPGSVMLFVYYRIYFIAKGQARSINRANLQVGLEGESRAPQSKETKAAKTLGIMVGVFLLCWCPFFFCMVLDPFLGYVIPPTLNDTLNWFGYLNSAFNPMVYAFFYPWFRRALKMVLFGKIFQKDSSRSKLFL

Structure (SMILES) | Ki (rat TAAR1) [nM] | Ki (mouse TAAR1) [nM] | Kd (TAAR1) [nM]
c1ccc2c(c1)CCCC2C1=NCCN1 (racemic) | – | – | 60
CCN(C[C@@H]1COC(N)=N1)c1ccc(F)c(OC)c1 [Example 139, (R)-4-{[Ethyl-(4-fluoro-3-methoxy-phenyl)-amino]-methyl}-4,5-dihydro-oxazol-2-ylamine] | 1.6 | 4.1 | –
CCN(C[C@@H]1COC(N)=N1)c1ccc(Cl)c(OC)c1 [Example 141, (R)-4-{[(4-Chloro-3-methoxy-phenyl)-ethyl-amino]-methyl}-4,5-dihydro-oxazol-2-ylamine] | 0.9 | 3.4 | –
CCN(C[C@H]1COC(N)=N1)c1ccc(F)cc1F [Example 145, (S)-4-{[(2,4-Difluoro-phenyl)-ethyl-amino]-methyl}-4,5-dihydro-oxazol-2-ylamine] | 4.8 | 8.2 | –
NC1=N[C@@H](CNc2ccc(F)cc2F)CO1 [Example 152, (S)-4-[(2,4-Difluoro-phenylamino)-methyl]-4,5-dihydro-oxazol-2-ylamine] | 7.2 | 3.2 | –
CC(C)N(C[C@@H]1COC(N)=N1)c1ccc(Cl)c(Cl)c1 [Example 159, (R)-4-{[(3,4-Dichloro-phenyl)-isopropyl-amino]-methyl}-4,5-dihydro-oxazol-2-ylamine] | 1.4 | 5.3 | –
CCN(C[C@H]1COC(N)=N1)c1cc(Cl)cc(Cl)c1 [Example 165, (S)-4-{[(3,5-Dichloro-phenyl)-ethyl-amino]-methyl}-4,5-dihydro-oxazol-2-ylamine] | 0.9 | 1.4 | –
CCN(C[C@@H]1COC(N)=N1)c1cc(F)cc(C(F)(F)F)c1 [Example 167, (R)-4-{[Ethyl-(3-fluoro-5-trifluoromethyl-phenyl)-amino]-methyl}-4,5-dihydro-oxazol-2-ylamine] | 9.7 | 5.1 | –
CCN(C[C@H]1COC(N)=N1)c1ccc(C(F)(F)F)cc1C [Example 175, (S)-4-{[Ethyl-(2-methyl-4-trifluoromethyl-phenyl)-amino]-methyl}-4,5-dihydro-oxazol-2-ylamine] | 8.3 | 9.2 | –

Now from value to compound, other results behind:

Ki (rat TAAR1) [nM] | Ki (mouse TAAR1) [nM] | Structure (SMILES) | Kd (TAAR1) [nM]
9.3 | 4.4 | COc1cc(N(C)C[C@@H]2COC(N)=N2)ccc1F [Example 138, (R)-4-{[(4-Fluoro-3-methoxy-phenyl)-methyl-amino]-methyl}-4,5-dihydro-oxazol-2-ylamine] | –
4.1 | 2.6 | COc1cc(N(C)C[C@@H]2COC(N)=N2)ccc1Cl [Example 140, (R)-4-{[(4-Chloro-3-methoxy-phenyl)-methyl-amino]-methyl}-4,5-dihydro-oxazol-2-ylamine] | –
6.2 | 3.1 | CN(C[C@H]1COC(N)=N1)c1ccc(F)cc1F [Example 146, (S)-4-{[(2,4-Difluoro-phenyl)-methyl-amino]-methyl}-4,5-dihydro-oxazol-2-ylamine] | –
2.1 | 1.7 | CN(C[C@@H]1COC(N)=N1)c1ccc(Cl)c(Cl)c1 [Example 157, (R)-4-{[(3,4-Dichloro-phenyl)-methyl-amino]-methyl}-4,5-dihydro-oxazol-2-ylamine] | –
0.4 | 2.2 | CCN(C[C@@H]1COC(N)=N1)c1ccc(Cl)c(Cl)c1 [Example 158, (R)-4-{[(3,4-Dichloro-phenyl)-ethyl-amino]-methyl}-4,5-dihydro-oxazol-2-ylamine] | –
0.9 | 1.3 | CN(C[C@H]1COC(N)=N1)c1cc(Cl)cc(Cl)c1 [Example 160, (S)-4-{[(3,5-Dichloro-phenyl)-methyl-amino]-methyl}-4,5-dihydro-oxazol-2-ylamine] | –
15.5 | 7.7 | CN(C[C@@H]1COC(N)=N1)c1ccc2ccccc2c1 [Example 162, (R)-4-[(Methyl-naphthalen-2-yl-amino)-methyl]-4,5-dihydro-oxazol-2-ylamine] | –
5.2 | 2.9 | CCN(C[C@@H]1COC(N)=N1)c1ccc2ccccc2c1 [Example 163, (R)-4-[(Ethyl-naphthalen-2-yl-amino)-methyl]-4,5-dihydro-oxazol-2-ylamine] | –

Source: patent US7902238B2, “2-aminooxazolines as TAAR1 ligands” (Hoffmann-La Roche Inc., priority 2007, dated 2011)
